This note sets out measurements from US6417327B1, “Peptide capable of regulating physiological function of FGF-5 and pharmaceutical composition containing the peptide” (Agency of Industrial Science and Technology, priority 1999, dated 2002).

No end group written: not given here.

For one test, the system named is Balb/c3T3 cells. As to the kind of experiment: Determination of DNA-synthesis-promoting activity (uptake of tritium, 3HTdR) without FGF-5. In kind it is cell-based. Conditions: test solution FGF-5(-) with heparin, peptide 10^-7 to 10^-3 M, without the addition of FGF-5. On the procedure: (§1) Balb/c3T3 cells (1.5×10^4 cells/500 μl) were plated on a 24-well culture plate and cultured in a DMEM medium for 24 hours in the presence o f 10% FCS. After washing the cells with the medium, a DMEM medium containing 0.3% FCS was added thereto to further culture the cells for 24 hours to synchronize the cells. To the mixture, test solutions [FGF-5(+)] containing heparin (5 μg/ml), one of FGF-5 peptides 1-5 synthesized in Example 1 (10^−7 to 10^−3 M) and the recombinant FGF-5 prepared in Reference Example 1 (10^−10 M) were added. After 16 hours of cultivation, 3 HTdR was added, and the cells were further cultured for 4 hours in a CO2 incubator. The supernatants were aspirated. The cells were washed with PBS, added with 10% TCA (125 μl), and incubated at room temperature. After confirming the immobilization of the cells, the supernatants were discarded. Five-hundred ul of 0.5N NaOH was added and the mixture was further incubated at room temperature for an hour, added with 3 ml scintillator and determined for the uptake of tritium into the cells with a liquid scintillation counter.
The uptake of tritium into cells was determined as described in (1) above with a liquid scintillation counter except that test solutions [FGF-5(−)] containing heparin and one of FGF-5 peptides 1-5 synthesized in Example 1 were used. […]

For a further test, the system named is FGF-5. The test can be described thus: Determination of DNA-synthesis-inhibiting activity (uptake of tritium, 3HTdR) in the presence of recombinant FGF-5. Type of test: cell-based, mouse. Particulars: Balb/c3T3 cells, test solution FGF-5(+) with heparin 5 μg/ml, recombinant FGF-5 10^-10 M, peptide 10^-7 to 10^-3 M. On the procedure: as §1
As controls for the determinations of inhibiting and promoting activities, a test solution containing heparin (5 μg/ml) and the recombinant FGF-5 (10^−10 M) prepared in Reference Example 1 was used.

A further test concerns platelets. As to the kind of experiment: Determination of thrombocytosis activity (number of platelets). In kind it is in vivo. Conditions: ICR mice, intraperitoneal; for increase of platelet: 1 μg/kg. On the procedure: ICR mice (male, 6 weeks old, weights 29-32 g) were grouped into 4 groups of six mice. A test solution containing the above-mentioned FGF-5 peptide 6 was intraperitoneally administered for 10 successive days.
The peptide (3.3 mg/ml) in an injection solution (0.9% saline containing 100 μg/ml bovine serum albumin (Fraction V)) was administered to the mice at 0.3 ml/mouse (33 mg/kg) At the same time, human recombinant thrombopoietin solution (0.1 μg/ml) and human recombinant interleukin 6 solution (0.1 μg/ml) were prepared, and intraperitoneally administered for 0.3 ml per mouse (1 μg/kg). Five μl of blood was collected from the caudal vein of each mouse, and immediately mixed with 20 μl of 3.8% sodium citrate in a test tube. Subsequently, the blood mixtures were serially diluted twice with Cellpack and determined for the number of platelets, as well as to determine the numbers of erythrocytes and hemacrit values with Sysmex F-820 (TOA Electronics Ltd.)

In another test the test system is mouse bone marrow cells. As to the kind of experiment: Differentiating and proliferating activities to give megakaryocytes (increase of acetylcholineesterase activity). Type of test: cell-based. Conditions: cultured 4 days, acetylcholineesterase activity by fluorescence. On the procedure: The differentiating and proliferating activities to give megakaryocytes were determined for this peptide, as the increase of acetylcholineesterase activity, by using mouse bone marrow cells as follows.
Bone marrow cells were taken from femur of ICR mouse (male, 6 weeks old), suspended in RPMI 1640 medium containing 1% fetal calf serum (FCS), and centrifuged. The supernatant was removed and the resultant was suspended in RPMI 1640 medium containing 0.5 mM DFP (diisopropylfluorophosphate) and 0.1% BSA (bovine serum albumin), and left to stand at room temperature for 20 min. Thereafter, the cells were washed with the same culture twice and suspended in RPMI 1640 medium containing 1% Neutridoma-SP and 0.1% BSA such that the number of cells was 2×10^6 cells/ml. The thus-prepared bone marrow cell suspension was dispensed in 100 μl into a 96-well culture plate, and cultured with a test solution containing 50 μl of FGF-5 peptide 6 at 37° C. for 4 days in the presence of 5% CO2.
Thereafter, the supernatant was removed, and the resultant was washed with PBS(−) twice and added with 180 μl 50 mM HEPES buffer (pH 7.6) containing 0.2% (w/v) Triton X-100 and 0.12 M NaCl and with 20 ul solution containing 5.6 mM acetylthiocholine iodide. […]

Turning to “Pro Asp Gly Lys Val Asn Gly Ser His Glu Ala Asn Met Leu Ser GIn Val His Arg (PDGKVNGSHEANMLSQVHR; SEQ ID NO10 represents a partial sequence of the amino acid sequence of human FGF-5.) [FGF-5 peptide 1]”, in the test with Balb/c3T3 cells, the DNA-synthesis-promoting activity result is “promoted DNA synthesis”. As to HEANMLSQVHR [FGF-5 peptide 4], the DNA-synthesis-inhibiting activity result in the test with FGF-5 was “inhibited DNA synthesis”.

“Gln Val His Arg (QVHR; SEQ ID NO3 represents a partial sequence (corresponding to amino acids 120-123) of the amino acid sequence of human FGF-5S.) [FGF-5 peptide 5]”: the DNA-synthesis-inhibiting activity entry in the test with FGF-5 is given as “inhibited DNA synthesis”. As to “human recombinant interleukin 6: human recombinant interleukin 6 solution (0.1 μg/ml), comparator in the platelet test”, in the test with platelets, the increase of platelet result is on record as “about 1.6 fold”. For the substance PDGKVNGSHEANM [FGF-5 peptide 6], the “differentiating and proliferating activities to give megakaryocytes” value in the test on mouse bone marrow cells is “exerts differentiating and proliferating activities to give megakaryocytes”. The “increase of the numbers of platelets” value with platelets (33 mg/kg, 10 successive days, two to 4 days after the administration) was 1.6 folds. As for HEANMLS [FGF-5 peptide 3], the DNA-synthesis-promoting activity result in the test with Balb/c3T3 cells was “promoted DNA synthesis”.

In the case of “human recombinant thrombopoietin: human recombinant thrombopoietin solution (0.1 μg/ml), comparator in the platelet test”, the increase of platelet result with platelets is given as “about 1.6 fold”.
